Laboratory results published in PubChem BioAssay AID1963427 (Molecular Pharmacology Branch, DTP, NCI, 2024).

System: 317291-083-R-J1-PDC complex spheroid growth
Test: Anticancer human tumor 317291-083-R-J1-PDC patient-derived soft tissue sarcoma cell line growth inhibition [Asc]
Details: for IC50: curve of first compound; for viability, T/C: stronger effect = lower value
Procedure, shortened: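 Stromal components (HUVEC and hMSC) are co-assembled with the cancer cells into multicellular spheroids. Drugs are then added singly or paired, at concentrations falling by half-log increments from a clinically achievable maximum, capped at 10 microM without known Cmax.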
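Note: compound exposure lasted seven days after spheroids formed for three days.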
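Throughout, for viability, T/C: 100% = DMSO vehicle control wells.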

Which results are given for `C#Cc1c(F)ccc2cc(O)cc(-c3ncc4c(N5CC6CCC(C5)N6)nc(OCC56CCCN5CC(F)C6)nc4c3F)c12` (centres undefined) + Cc1c(S(C)(=O)=O)c(-c2cc(F)cc(N3CCN(c4ccc(NS(=O)(=O)c5ccc(NC(CCN6CCC(C(=O)OCCCP(=O)(O)O)CC6)CSc6ccccc6)c(S(=O)(=O)C(F)(F)F)c5)cc4)CC3)c2)c(-c2ccc(Cl)cc2)n1C(C)C?
IC50 (second compound 0.0316 µM): > 10000 nM; IC50 (second compound 0.1 µM): > 10000 nM; IC50 (second compound 0.316 µM): > 10000 nM; IC50 (second compound 1 µM): > 10000 nM; IC50 (second compound 3.16 µM): > 10000 nM; IC50 (second compound 10 µM): 9940 nM; viability, T/C (second compound 0.0316 µM, first compound 0.0316 µM): 105%; viability, T/C (second compound 0.0316 µM, first compound 0.1 µM): 89%; viability, T/C (second compound 0.0316 µM, first compound 0.316 µM): 102%; viability, T/C (second compound 0.0316 µM, first compound 1 µM): 84.6%; viability, T/C (second compound 0.0316 µM, first compound 3.16 µM): 96.7%; viability, T/C (second compound 0.0316 µM, first compound 10 µM): 68.8%; viability, T/C (second compound 0.1 µM, first compound 0.0316 µM): 86.5%; viability, T/C (second compound 0.1 µM, first compound 0.1 µM): 101%; viability, T/C (second compound 0.1 µM, first compound 0.316 µM): 92.1%; viability, T/C (second compound 0.1 µM, first compound 1 µM): 87.7%; viability, T/C (second compound 0.1 µM, first compound 3.16 µM): 96.7%; viability, T/C (second compound 0.1 µM, first compound 10 µM): 70.1%; viability, T/C (second compound 0.316 µM, first compound 0.0316 µM): 93.9%; viability, T/C (second compound 0.316 µM, first compound 0.1 µM): 87.3%; viability, T/C (second compound 0.316 µM, first compound 0.316 µM): 80.3%; viability, T/C (second compound 0.316 µM, first compound 1 µM): 78.9%; viability, T/C (second compound 0.316 µM, first compound 3.16 µM): 80.3%; viability, T/C (second compound 0.316 µM, first compound 10 µM): 62.5%; viability, T/C (second compound 1 µM, first compound 0.0316 µM): 90.7%; viability, T/C (second compound 1 µM, first compound 0.1 µM): 70.3%; viability, T/C (second compound 1 µM, first compound 0.316 µM): 83.4%; viability, T/C (second compound 1 µM, first compound 1 µM): 67.6%; viability, T/C (second compound 1 µM, first compound 3.16 µM): 74.9%; viability, T/C (second compound 1 µM, first compound 10 µM): 58.4%; viability, T/C (second compound 3.16 µM, first compound 0.0316 µM): 75.5%; viability, T/C (second compound 3.16 µM, first compound 0.1 µM): 67.1%; viability, T/C (second compound 3.16 µM, first compound 0.316 µM): 68.9%; viability, T/C (second compound 3.16 µM, first compound 1 µM): 71.7%; viability, T/C (second compound 3.16 µM, first compound 3.16 µM): 74.3%; viability, T/C (second compound 3.16 µM, first compound 10 µM): 53.2%; viability, T/C (second compound 10 µM, first compound 0.0316 µM): 79.9%; viability, T/C (second compound 10 µM, first compound 0.1 µM): 101%; viability, T/C (second compound 10 µM, first compound 0.316 µM): 89.2%; viability, T/C (second compound 10 µM, first compound 1 µM): 76.9%; viability, T/C (second compound 10 µM, first compound 3.16 µM): 80.5%; viability, T/C (second compound 10 µM, first compound 10 µM): 49.1%

How did the IC50 (second compound 0.0316 µM) turn out when `Cc1nc(N2CCC3(CC2)COC(C)C3N)c(CO)nc1Sc1ccnc(N)c1Cl` (centres undefined) + Cc1c(S(C)(=O)=O)c(-c2cc(F)cc(N3CCN(c4ccc(NS(=O)(=O)c5ccc(NC(CCN6CCC(C(=O)OCCCP(=O)(O)O)CC6)CSc6ccccc6)c(S(=O)(=O)C(F)(F)F)c5)cc4)CC3)c2)c(-c2ccc(Cl)cc2)n1C(C)C was run?
Its IC50 is 1960 nM.

What about the IC50 (second compound 0.1 µM) of the same molecule?
Its IC50 is 2540 nM.

And the IC50 (second compound 0.316 µM)?
The IC50 was 946 nM.

And the IC50 (second compound 1 µM)?
The IC50 was 600 nM.

And the IC50 (second compound 3.16 µM)?
Its IC50 is 469 nM.

And the IC50 (second compound 10 µM)?
The IC50 was 992 nM.

What about the viability, T/C (second compound 0.0316 µM, first compound 0.00949 µM) of the same molecule?
Its viability, T/C is 96.4%.

And the viability, T/C (second compound 0.0316 µM, first compound 0.03 µM)?
Its viability, T/C is 77.5%.

What about the viability, T/C (second compound 0.0316 µM, first compound 0.0949 µM) of the same molecule?
The viability, T/C was 98.4%.

What about the viability, T/C (second compound 0.0316 µM, first compound 0.3 µM) of the same molecule?
Its viability, T/C is 82.8%.

What about the viability, T/C (second compound 0.0316 µM, first compound 0.949 µM) of the same molecule?
Its viability, T/C is 61.3%.

What about the viability, T/C (second compound 0.0316 µM, first compound 3 µM) of the same molecule?
Its viability, T/C is 43.5%.

And the viability, T/C (second compound 0.1 µM, first compound 0.00949 µM)?
Its viability, T/C is 98.1%.

What about the viability, T/C (second compound 0.1 µM, first compound 0.03 µM) of the same molecule?
Its viability, T/C is 92.1%.

And the viability, T/C (second compound 0.1 µM, first compound 0.0949 µM)?
Its viability, T/C is 81.9%.

What about the viability, T/C (second compound 0.1 µM, first compound 0.3 µM) of the same molecule?
The viability, T/C was 69.8%.

What about the viability, T/C (second compound 0.1 µM, first compound 0.949 µM) of the same molecule?
The viability, T/C was 51.3%.

What about the viability, T/C (second compound 0.1 µM, first compound 3 µM) of the same molecule?
Its viability, T/C is 51%.

And the viability, T/C (second compound 0.316 µM, first compound 0.00949 µM)?
The viability, T/C was 88.3%.

What about the viability, T/C (second compound 0.316 µM, first compound 0.03 µM) of the same molecule?
Its viability, T/C is 91.3%.

And the viability, T/C (second compound 0.316 µM, first compound 0.0949 µM)?
Its viability, T/C is 74.4%.

What about the viability, T/C (second compound 0.316 µM, first compound 0.3 µM) of the same molecule?
Its viability, T/C is 63.9%.

And the viability, T/C (second compound 0.316 µM, first compound 0.949 µM)?
The viability, T/C was 52.2%.

What about the viability, T/C (second compound 0.316 µM, first compound 3 µM) of the same molecule?
Its viability, T/C is 29.9%.

What about the viability, T/C (second compound 1 µM, first compound 0.00949 µM) of the same molecule?
The viability, T/C was 93.7%.

And the viability, T/C (second compound 1 µM, first compound 0.03 µM)?
Its viability, T/C is 73.2%.

What about the viability, T/C (second compound 1 µM, first compound 0.0949 µM) of the same molecule?
Its viability, T/C is 68.8%.

And the viability, T/C (second compound 1 µM, first compound 0.3 µM)?
Its viability, T/C is 63.1%.

What about the viability, T/C (second compound 1 µM, first compound 0.949 µM) of the same molecule?
Its viability, T/C is 39.2%.

What about the viability, T/C (second compound 1 µM, first compound 3 µM) of the same molecule?
The viability, T/C was 37.9%.

And the viability, T/C (second compound 3.16 µM, first compound 0.00949 µM)?
The viability, T/C was 86.5%.

What about the viability, T/C (second compound 3.16 µM, first compound 0.03 µM) of the same molecule?
Its viability, T/C is 69.8%.

And the viability, T/C (second compound 3.16 µM, first compound 0.0949 µM)?
The viability, T/C was 66.2%.

What about the viability, T/C (second compound 3.16 µM, first compound 0.3 µM) of the same molecule?
The viability, T/C was 58.6%.

And the viability, T/C (second compound 3.16 µM, first compound 0.949 µM)?
The viability, T/C was 42.2%.

What about the viability, T/C (second compound 3.16 µM, first compound 3 µM) of the same molecule?
The viability, T/C was 20.4%.

What about the viability, T/C (second compound 10 µM, first compound 0.00949 µM) of the same molecule?
Its viability, T/C is 86.5%.

What about the viability, T/C (second compound 10 µM, first compound 0.03 µM) of the same molecule?
The viability, T/C was 87.3%.

And the viability, T/C (second compound 10 µM, first compound 0.0949 µM)?
Its viability, T/C is 81.7%.

What about the viability, T/C (second compound 10 µM, first compound 0.3 µM) of the same molecule?
The viability, T/C was 67.5%.

And the viability, T/C (second compound 10 µM, first compound 0.949 µM)?
The viability, T/C was 52%.

And the viability, T/C (second compound 10 µM, first compound 3 µM)?
Its viability, T/C is 26.7%.
